Assay results: patent US20220089646A1 (THE UNIVERSITY OF QUEENSLAND, priority 2019, published 2022)
*1 amine or outer side, *2 acyl side, *3 side chain or, on linkers, in order; H or OH if unused. Where a SMILES comes first, the peptide text is derived from it. Bridges are numbered along the chain shown (N, C = ends). [ ]: non-standard residue; d: D form. NHCH2CMe2S = CC(C)(CN[*:1])S[*:2]

Legend:
Type in all cases: cell-based
DOP = DOP (Homo sapiens, UniProt P41143); test: cAMP assay with naloxone in HEK-DOP cells; details: naloxone 100 μM/well; for Mean cAMP response with naloxone: HEK-DOP, peptide at approximate IC80; for Naloxone reversal of cAMP inhibition through DOP: p<0.05
Sequence of DOP (P41143 whole entry): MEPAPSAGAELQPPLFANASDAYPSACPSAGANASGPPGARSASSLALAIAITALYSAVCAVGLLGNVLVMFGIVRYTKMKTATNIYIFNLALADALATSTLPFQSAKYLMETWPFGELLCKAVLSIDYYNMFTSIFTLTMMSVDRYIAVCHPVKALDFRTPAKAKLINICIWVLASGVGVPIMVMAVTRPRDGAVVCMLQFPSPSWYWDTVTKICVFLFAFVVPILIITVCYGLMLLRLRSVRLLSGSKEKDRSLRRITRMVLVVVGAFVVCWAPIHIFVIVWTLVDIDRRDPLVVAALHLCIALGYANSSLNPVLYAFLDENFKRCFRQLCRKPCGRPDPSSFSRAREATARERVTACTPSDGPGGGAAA
Procedure: The preparation of buffers, cAMP standard curve, bead solutions were carried out identically to the agonist assay.
Forskolin had been optimised at 50 μM/well. Thus, the 25 mM stocks were used to prepare 300 μL of 0.3 mM Forskolin. The concentration of Forskolin prepared was 6 times the required concentration in the well to account for further dilution in the well. Forskolin solution was then made from this and used to dilute the drug solutions.
Approximate IC80 values were used for DP-7-11 and DP-7-12 to determine the ability of naloxone to reverse agonist inhibitory effect.
The desired concentration of naloxone was 100 μM/well. Thus, 100 μL of 600 μM naloxone was made up from 100 mM stock. This was 6 times the desired in-well concentration to account for further dilution in the well by Forskolin, peptide, cells and acceptor bead solutions.
Stimulation buffer was added to the 0.3 mM Forskolin solution to prepare the Forskolin only treatment solution as the positive control. Stimulation buffer used as the negative control.
The DP series compounds were assayed as follows: The different cAMP standard solutions (3 μL/well) were plated in duplicate. Naloxone solution was then plated (1 μL/well) for each treatment (DP-7-11, DP-7-12, Forskolin only and stimulation buffer) in triplicate. In the same way, stimulation buffer was plated (1 μL/well) for the same number of wells. This made up two sets of wells, antagonist and non-antagonist. Following this, the acceptor bead and cell mixture (3 μL/well) was added to the treatment wells. The plates were then covered and centrifuged at 280 g for 30 seconds before incubation on an orbital shaker for 30 minutes at room temperature. The acceptor bead mixture (3 μL/well) was then added to the cAMP standard curve wells, whilst the drug mixed with Forskolin solutions (3 μL/well) were added to the respective treatment wells in triplicate. Again, the plates were centrifuged at 280 g for 30 seconds, then covered and incubated on the orbital shaker for another 30 minutes. Finally, the donor bead mixture (10 μL/well) was added to each well. This was incubated at room temperature overnight on the orbital shaker.
The Ensight® Multimode Plate Reader was used to quantify the fluorescence units of each plate. Before reading, each plate was centrifuged at 280 g for 30 seconds. Using GraphPad Prism7® Software, cAMP concentrations were determined from the fluorescence data by fit spline/LOWESS analysis. The cAMP standard curve was used for interpolation at this point. The cAMP concentrations were then normalized to the highest cAMP concentration recorded and analyzed by one-way ANOVA for multiple comparisons. This analysis was corrected for multiple comparisons using Bonferroni. […]

KOP = KOP (Homo sapiens, UniProt P41145); test: In vitro cAMP activity at KOP (Table 10); details: cAMP inhibition, four-parameter regression, normalised to U50488H
Sequence of KOP (P41145 whole entry): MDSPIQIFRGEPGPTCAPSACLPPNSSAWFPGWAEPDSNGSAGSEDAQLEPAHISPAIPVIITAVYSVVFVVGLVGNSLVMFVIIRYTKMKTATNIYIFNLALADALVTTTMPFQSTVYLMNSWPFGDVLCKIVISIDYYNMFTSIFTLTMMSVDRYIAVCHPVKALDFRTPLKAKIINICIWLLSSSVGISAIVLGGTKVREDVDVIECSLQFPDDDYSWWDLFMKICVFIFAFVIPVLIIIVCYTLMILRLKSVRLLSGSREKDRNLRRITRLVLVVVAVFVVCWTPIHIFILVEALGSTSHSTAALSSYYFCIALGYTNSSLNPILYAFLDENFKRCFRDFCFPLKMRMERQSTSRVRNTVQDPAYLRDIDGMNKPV
Procedure: (§1) The CP series compounds were assayed as follows: The assay was performed using a 96 well ½ area plate. The different cAMP standard solutions (3 μL/well) were plated in duplicate. The different concentrations of drug (3 μL/well), and control solutions (3 μL/well) were plated in triplicate. Following this, the acceptor bead mixture (3 μL/well) was added to the respective sets—either cAMP standard curve or the treatment. This was covered and incubated on the orbital shaker for 60 minutes at 37° C. Then, the donor bead mixture (10 μL/well) was added to each well. This was incubated at room temperature overnight on the orbital shaker.
(§2) For DP-11-06 the assay was carried out in the same way as for the CP compounds except it was incubated for 30 mins at 37° C.
(§3) For the CP series compounds and DP-11-06, the Ensight® Multimode Plate Reader was used to quantify the fluorescence units of each plate. Before reading, each plate was centrifuged at 280 g for 30 seconds. Using GraphPad Prism7® Software, cAMP concentrations were determined by fit spline/LOWESS analysis. The cAMP standard curve was used for interpolation at this point. The cAMP concentrations were then normalized to the highest cAMP concentration recorded and analyzed by one-way ANOVA for multiple comparisons. The IC50 for each compound was then calculated using GraphPad Prism7® with non-linear regression analysis using four parameter curve fitting.
The results shown in Table 10 utilized rat plasma. • Note that DP-7-11 and CP5 represent the same compound, and DP-7-12 and CP6 are the same compound. In this regard, a different regression analysis method was adopted on the above cAMP experiments. Particularly, a new non-linear regression (four-parameter) was adopted to better account for hill slope, thereby improving the regression fit.

MOP = MOP (Homo sapiens, UniProt P35372); test: In vitro cAMP activity at MOP (Table 10); details: cAMP inhibition, four-parameter regression
Sequence of MOP (P35372 whole entry): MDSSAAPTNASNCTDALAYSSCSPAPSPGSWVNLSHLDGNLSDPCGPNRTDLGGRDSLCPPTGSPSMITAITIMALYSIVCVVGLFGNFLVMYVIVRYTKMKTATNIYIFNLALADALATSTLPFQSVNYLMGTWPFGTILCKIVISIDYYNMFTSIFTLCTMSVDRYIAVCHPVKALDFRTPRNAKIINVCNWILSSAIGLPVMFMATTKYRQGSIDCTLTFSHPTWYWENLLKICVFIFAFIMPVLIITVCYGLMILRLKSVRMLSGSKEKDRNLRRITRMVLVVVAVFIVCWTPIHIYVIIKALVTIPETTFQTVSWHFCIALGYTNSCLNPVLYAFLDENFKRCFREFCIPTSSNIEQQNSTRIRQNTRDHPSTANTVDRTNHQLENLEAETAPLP
Procedure: as §1, §2, §3
In this regard, a different regression analysis method was adopted on the above cAMP experiments. Particularly, a new non-linear regression (four-parameter) was adopted to better account for hill slope, thereby improving the regression fit.

Compound	Mean cAMP response with naloxone (DOP) [%]	Naloxone reversal of cAMP inhibition through DOP (DOP)	EC50 (KOP) [nM]	EC50 (MOP) [nM]
CC1(C)CNC(=O)C[C@H](C(=O)N[C@@H](CCCNC(=N)N)C(=O)N[C@@H](CCCNC(=N)N)C(N)=O)NC(=O)[C@H](Cc2ccccc2)NC(=O)CNC(=O)[C@@H](NC(=O)[C@@H](N)Cc2ccc(O)cc2)CSS1 [DP-7-11, c(Tyr-SSa-Gly-Phe-D(Asp)-Arg-Arg)]	77.18	reversed by naloxone	> 10000	> 10000
CC1(C)CNC(=O)C[C@@H](NC(=O)[C@@H](N)Cc2ccc(O)cc2)C(=O)NCC(=O)N[C@@H](Cc2ccccc2)C(=O)N[C@H](C(=O)N[C@@H](CCCNC(=N)N)C(=O)N[C@@H](CCCNC(=N)N)C(N)=O)CSS1 [DP-7-12, c(Tyr-D(Asp)-Gly-Phe-SSa-Arg-Arg)] (H-Y[dD]GFCRR-NH2; linker 2-5 via NHCH2CMe2S)	62.68	reversed by naloxone	160	2.7
